Assay results as given in patent US20230219965A1 (KSQ Therapeutics, Inc., priority 2020, published 2023).
Where two headings read alike, the source gives them in different places.

Columns and labels:
USP1/UAF1 enzyme = USP1/UAF1 enzyme (Homo sapiens, UniProt O94782); assay: USP1/UAF1 deubiquitination assay (ubiquitin-rhodamine 110 substrate); format: biochemical; conditions: read-out: USP1 IC50 (Ub-Rho)
Outline: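 Cleavage of 150 nM ubiquitin-rhodamine 110 by 0.05 nM USP1/UAF1 was followed as fluorescence (Ex480/Em540, kinetic, 30 min) in Tris-HCl pH 7.8 buffer with EDTA, BSA, DTT and Tween-20. Compounds, top 10 μM, were preincubated with enzyme 10 min; % inhibition against no-enzyme and DMSO wells gave four-parameter IC50s.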

[1] = Liver microsomal metabolic stability, human liver microsomes (HLM); conditions: human, liver microsomes
[2] = ADME solubility determination in PBS at pH 2.0 and pH 7.4; format: physicochemical; conditions: phosphate buffered saline, 25 °C, thermodynamic from solid
Description: Certain Compounds of the Disclosure were assessed for ADME solubility at pH 2.0 and pH 7.4.
Stock solutions were prepared by adding each compound to DMSO at a concentration of 10 mM. Samples were prepared by adding 50 μL of each stock solution to separate vials. The vials were loaded onto a 96-well rack and dried. 500 μL of Phosphate Buffered Saline (PBS) pH 7.4 or PBS pH 2.0 were added into each vial. The vials were then shaken at 25° C. and 1,100 rpm for 24 hours.
After 24 hours, the vials were centrifuged at 3220 G and 25° C. for 30 minutes. The supernatant fluid was analyzed by LC-MS/MS against a standard of known concentration. The solubility of each sample was then calculated using the equation below: […]
where DF is the dilution factor.

[3] = Liver microsomal metabolic stability, rat liver microsomes (RLM); conditions: rat, liver microsomes, t1/2 (min) in RLM, 1 μM compound, 1 mg/mL microsomes, NADPH
[4] = pH 2, aqueous buffer, PBS pH 2.0, 25° C., read-out: Solubility at pH 2.0
[5] = pH 7.4, aqueous buffer, PBS pH 7.4, 25° C., read-out: Solubility at pH 7.4

Chain of USP1/UAF1 enzyme (O94782 whole entry): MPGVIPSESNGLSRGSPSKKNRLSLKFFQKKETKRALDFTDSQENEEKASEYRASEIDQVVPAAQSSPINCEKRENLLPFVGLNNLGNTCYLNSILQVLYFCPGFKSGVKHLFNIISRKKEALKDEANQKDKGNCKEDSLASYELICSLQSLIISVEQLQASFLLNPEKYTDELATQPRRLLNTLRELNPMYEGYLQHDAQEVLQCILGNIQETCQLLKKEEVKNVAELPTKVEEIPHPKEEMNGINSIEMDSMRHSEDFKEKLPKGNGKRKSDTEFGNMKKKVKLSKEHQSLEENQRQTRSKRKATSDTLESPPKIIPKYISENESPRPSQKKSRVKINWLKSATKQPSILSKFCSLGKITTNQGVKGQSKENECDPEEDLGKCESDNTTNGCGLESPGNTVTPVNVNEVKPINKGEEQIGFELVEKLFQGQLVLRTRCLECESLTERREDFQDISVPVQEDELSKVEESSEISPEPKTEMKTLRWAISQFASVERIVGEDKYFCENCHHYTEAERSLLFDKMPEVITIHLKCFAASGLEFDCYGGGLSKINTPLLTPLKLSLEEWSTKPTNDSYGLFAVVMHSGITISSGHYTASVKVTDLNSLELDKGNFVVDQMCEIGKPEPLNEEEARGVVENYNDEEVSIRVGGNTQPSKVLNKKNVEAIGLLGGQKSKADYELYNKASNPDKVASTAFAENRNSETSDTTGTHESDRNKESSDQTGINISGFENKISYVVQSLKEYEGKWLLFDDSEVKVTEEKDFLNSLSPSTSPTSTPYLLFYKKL
Chain of USP1/UAF1 enzyme (Q8TAF3 whole entry partner): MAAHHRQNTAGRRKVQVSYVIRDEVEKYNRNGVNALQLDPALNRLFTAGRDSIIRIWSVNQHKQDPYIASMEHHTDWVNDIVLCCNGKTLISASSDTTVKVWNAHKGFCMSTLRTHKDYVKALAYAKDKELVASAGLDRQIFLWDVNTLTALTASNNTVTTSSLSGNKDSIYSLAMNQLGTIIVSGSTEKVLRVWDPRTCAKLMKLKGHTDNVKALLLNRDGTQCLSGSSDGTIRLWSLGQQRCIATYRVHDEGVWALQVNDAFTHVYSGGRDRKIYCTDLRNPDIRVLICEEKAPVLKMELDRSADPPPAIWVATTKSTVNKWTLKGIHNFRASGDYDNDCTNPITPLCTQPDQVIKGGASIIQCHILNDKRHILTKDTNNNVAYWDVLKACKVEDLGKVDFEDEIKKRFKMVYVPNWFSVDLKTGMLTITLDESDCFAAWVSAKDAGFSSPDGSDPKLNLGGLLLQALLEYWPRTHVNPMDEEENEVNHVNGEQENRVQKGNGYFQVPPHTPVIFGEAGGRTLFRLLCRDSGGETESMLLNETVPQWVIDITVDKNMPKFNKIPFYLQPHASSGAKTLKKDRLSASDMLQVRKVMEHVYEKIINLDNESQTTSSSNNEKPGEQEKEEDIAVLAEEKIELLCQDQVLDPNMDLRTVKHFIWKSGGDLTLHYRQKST

| Structure (SMILES) | IC50 (USP1/UAF1 enzyme) | half-life at 1 μM [1] | solubility at 24 h [2, 4] | solubility at 24 h [2, 5] | half-life at 1 μM [3] |
| --- | --- | --- | --- | --- | --- |
| COc1ncnc(C2CC2)c1-c1cc2n(n1)CCC(=O)N2Cc1ccc(-n2nc(C(F)(F)F)cc2C)cc1 [Example 4, 2-(4-cyclopropyl-6-methoxypyrimidin-5-yl)-4-(4-(5-methyl-3-(trifluoromethyl)-1H-pyrazol-1-yl)benzyl)-6,7-dihydropyrazolo[1,5-a]pyrimidin-5(4H)-one] | < 100 nM | > 25 min | < 10 µM | < 10 µM | > 25 min |
| COc1ncnc(C2CC2)c1-c1cc2n(n1)CCC(=O)N2Cc1ccc(-n2nc(C#N)cc2OC)c(F)c1 [Example 8, (4-((2-(4-cyclopropyl-6-methoxypyrimidin-5-yl)-5-oxo-6,7-dihydropyrazolo[1,5-a]pyrimidin-4(5H)-yl)methyl)-2-fluorophenyl)-5-methoxy-1H-pyrazole-3-carbonitrile] | 100 to 500 nM | > 25 min | ≥ 10 µM | < 10 µM | > 25 min |
| COc1ccnc(C(C)C)c1-c1cc2n(n1)CCC(=O)N2Cc1ccc(-c2nc(C(F)(F)F)cn2C)cc1 [Example 13, 2-(2-isopropyl-4-methoxypyridin-3-yl)-4-(4-(1-methyl-4-(trifluoromethyl)-1H-imidazol-2-yl)benzyl)-6,7-dihydropyrazolo[1,5-a]pyrimidin-5(4H)-one] | 100 to 500 nM | < 25 min | ≥ 10 µM | ≥ 10 µM | < 25 min |
| Cn1cc(C(F)(F)F)nc1-c1ccc(CN2C(=O)CCn3nc(-c4c(Cl)cnn4C4CCC4)cc32)cc1F [Example 19, 2-(4-chloro-1-cyclobutyl-1H-pyrazol-5-yl)-4-(3-fluoro-4-(1-methyl-4-(trifluoromethyl)-1H-imidazol-2-yl)benzyl)-6,7-dihydropyrazolo[1,5-a]pyrimidin-5(4H)-one] | < 100 nM | < 25 min | < 10 µM | < 10 µM | < 25 min |
| COc1ncnc(C2CC2)c1-c1cc2n(n1)CC(C)C(=O)N2Cc1ccc(-c2nc(C(F)(F)F)cn2C)cc1 (stereo not drawn) [Example 32] | < 100 nM | > 25 min | ≥ 10 µM | < 10 µM | > 25 min |
| Cc1cnn(C(C)C)c1-c1nn2c(c1Cl)N(Cc1ccc(-c3nc(C(F)(F)F)cn3C)cc1)C(=O)CC2 [Example 34] | 100 to 500 nM | < 25 min | < 10 µM | < 10 µM | < 25 min |
| Cc1cnn(C(C)C)c1-c1cc2n(n1)CCCN2Cc1ccc(-n2nc(C(F)(F)F)cc2C)c(F)c1 [Example 56] | < 100 nM | < 25 min | < 10 µM | < 10 µM | < 25 min |
| Cc1cn(C)nc1-c1ccc(CN2C(=O)CCn3nc(-c4c(Cl)cnn4C(C)C)cc32)cc1 [Example 93] | < 100 nM | < 25 min | < 10 µM | < 10 µM | < 25 min |
| COCc1cc(C(F)(F)F)nn1-c1ccc(CN2C(=O)CCn3nc(-c4c(Cl)cnn4C(C)C)cc32)cc1 [Example 100] | < 100 nM | < 25 min | < 10 µM | < 10 µM | < 25 min |
| COc1cc(C#N)nn1-c1ccc(CN2C(=O)CCn3nc(-c4c(Cl)cnn4C(C)C)cc32)cc1 [Example 106] | < 100 nM | > 25 min | < 10 µM | < 10 µM | > 25 min |
| COc1cc([C@H](C)N2C(=O)CCn3nc(-c4c(OC)ncnc4C4CC4)cc32)ccc1-c1nc(C(F)(F)F)cn1C(C)C [Example 128] | 100 to 500 nM | < 25 min | ≥ 10 µM | < 10 µM | < 25 min |
| COCCOc1cc(CN2C(=O)CCn3nc(-c4c(Cl)cnn4C(C)C)nc32)ccc1-c1nc(C(F)(F)F)cn1C(C)C [Example 167] | 100 to 500 nM | – | < 10 µM | < 10 µM | – |
| CCn1cc(C(F)(F)F)nc1-c1ccc(Cn2c(=O)c(C)cn3nc(-c4c(OC)ncnc4C4CC4)nc23)cc1 [Example 391, 2-(4-cyclopropyl-6-methoxypyrimidin-5-yl)-4-(4-(1-ethyl-4-(trifluoromethyl)-1H-imidazol-2-yl)benzyl)-6-methyl-[1,2,4]triazolo[1,5-α]pyrimidin-5(4H)-one] | < 100 nM | – | – | – | – |
| CCn1cc(C(F)(F)F)nc1-c1ccc(Cn2c(=O)c(C)cn3nc(-c4c(OC(F)F)ncnc4C4CC4)nc23)cc1 [Example 392, 2-(4-cyclopropyl-6-(difluoromethoxy)pyrimidin-5-yl)-4-(4-(1-ethyl-4-(trifluoromethyl)-1H-imidazol-2-yl)benzyl)-6-methyl-[1,2,4]triazolo[1,5-a]pyrimidin-5(4H)-one] | < 100 nM | – | – | – | – |

The remaining lines, values ahead:

| IC50 (USP1/UAF1 enzyme) | half-life at 1 μM [1] | solubility at 24 h [2, 4] | solubility at 24 h [2, 5] | half-life at 1 μM [3] | Structure (SMILES) |
| --- | --- | --- | --- | --- | --- |
| < 100 nM | > 25 min | < 10 µM | < 10 µM | > 25 min | CCn1cc(C(F)(F)F)nc1-c1ccc(N[C@@H]2CCCn3nc(-c4c(Cl)cnn4[C@H](C)CF)cc32)cc1 (single isomer, unassigned) [Example 323] |
| < 100 nM | > 25 min | < 10 µM | < 10 µM | > 25 min | CCn1cc(C(F)(F)F)nc1-c1ccc(N[C@@H]2CCCn3nc(-c4c(Cl)cnn4[C@@H](C)CF)cc32)cc1 (single isomer, unassigned) [Example 324] |
| 100 to 500 nM | < 25 min | ≥ 10 µM | < 10 µM | < 25 min | Cc1cnn(C(C)C)c1-c1cc2n(n1)CC(C)C(=O)N2Cc1ccc(-c2nc(C(F)(F)F)cn2C)cc1 (stereo not drawn) [Example 31, 2-(1-isopropyl-4-methyl-1H-pyrazol-5-yl)-6-methyl-4-(4-(1-methyl-4-(trifluoromethyl)-1H-imidazol-2-yl)benzyl)-6,7-dihydropyrazolo[1,5-α]pyrimidin-5(4H)-one] |
| < 100 nM | < 25 min | ≥ 10 µM | ≥ 10 µM | < 25 min | Cc1cnn(C(C)C)c1-c1cc2n(n1)C(C)CC(=O)N2Cc1ccc(-c2nc(C(F)(F)F)cn2C)cc1 (stereo not drawn) [Example 36, 2-(1-isopropyl-4-methyl-1H-pyrazol-5-yl)-7-methyl-4-(4-(1-methyl-4-(trifluoromethyl)-1H-imidazol-2-yl)benzyl)-6,7-dihydropyrazolo[1,5-α]pyrimidin-5(4H)-one] |
| < 100 nM | < 25 min | < 10 µM | < 10 µM | < 25 min | Cc1cnn(C(C)C)c1-c1cc2n(n1)CCCN2Cc1ccc(-n2nc(C(F)(F)F)cc2C)cc1 [Example 52, 2-(1-isopropyl-4-methyl-1H-pyrazol-5-yl)-4-(4-(5-methyl-3-(trifluoromethyl)-1H-pyrazol-1-yl)benzyl)-4,5,6,7-tetrahydropyrazolo[1,5-α]pyrimidine] |
| < 100 nM | < 25 min | < 10 µM | < 10 µM | < 25 min | CCn1cc(C(F)(F)F)nc1-c1ccc(CN2CCCn3nc(-c4c(Cl)cnn4C(C)C)cc32)cc1F [Example 60] |
| < 100 nM | > 25 min | < 10 µM | < 10 µM | < 25 min | CCn1cc(C(F)(F)F)nc1-c1ccc(CN2C(=O)CCn3nc(-c4c(Cl)cnn4C(C)C)cc32)cc1F [Example 77, 2-(4-chloro-1-isopropyl-1H-pyrazol-5-yl)-4-(4-(1-ethyl-4-(trifluoromethyl)-1H-imidazol-2-yl)-3-fluorobenzyl)-6,7-dihydropyrazolo[1,5-α]pyrimidin-5(4H)-one] |
| < 100 nM | > 25 min | < 10 µM | < 10 µM | < 25 min | CC(C)n1cc([N+](=O)[O-])nc1-c1ccc(CN2C(=O)CCn3nc(-c4c(Cl)cnn4C(C)C)cc32)cc1 [Example 112] |
| < 100 nM | – | – | – | – | CC(CF)n1cc(C(F)(F)F)nc1-c1ccc(NC2CCCn3nc(-c4c(Cl)cnn4C(C)C)cc32)cc1 (stereo not drawn) [Example 390, 2-(4-chloro-1-isopropyl-1H-pyrazol-5-yl)-N-(4-(1-(1-fluoropropan-2-yl)-4-(trifluoromethyl)-1H-imidazol-2-yl)phenyl)-4,5,6,7-tetrahydropyrazolo[1,5-a]pyridin-4-amine] |
| < 100 nM | – | – | – | – | COc1ncnc(C2CC2)c1-c1cc2n(n1)CCC[C@@H]2Oc1ccc(-c2nc(C(F)(F)F)cn2C(C)CF)cc1 (stereo partly drawn) [Example 393, (4S)-2-(4-cyclopropyl-6-methoxypyrimidin-5-yl)-4-(4-(1-(1-fluoropropan-2-yl)-4-(trifluoromethyl)-1H-imidazol-2-yl)phenoxy)-4,5,6,7-tetrahydropyrazolo[1,5-α]pyridine] |
